Data on four compounds can be found in patent US20080194641A1, “Pesticidal Mixtures” (BASF Aktiengesellschaft, priority 2005, published 2008).

Assay [1] relates to Colorado potato beetle. Description: Leaf-dip bioassay on potato leaves, larval mortality. Conditions: Leptinotarsa decemlineata, 120 h. It is filed as in vivo. On the procedure: (§1) Potato plants for Colorado potato beetle and two-leaf cotton plants for tobacco budworm were utilized for bioassays. Excised plant leaves were dipped into 1:1 acetone/water dilutions of the active compounds. After the leaves had dried, they were individually placed onto water-moistened filter paper on the bottoms of Petri dishes. Each dish was infested with 5-7 larvae and covered with a lid. Each treatment dilution was replicated 4 times. Test dishes were held at approximately 27° C. and 60% humidity. Numbers of live and morbid larvae were assessed in each dish at 5 days after treatment application, and percent mortality was calculated.
(§2) To determine if an insecticidal mixture was synergistic, Limpel's formula was used:
(§3) E=Expected % mortality of the mixture X=% mortality of compound X, as measured independently Y=% mortality of compound Y, as measured independently
(§4) Synergism was evident if the % observed mortality for the mixture was greater than the % expected mortality.

The subject of assay [2] is tobacco budworm. Description: Leaf-dip bioassay on cotton leaves, larval mortality. The following applies: Heliothis virescens, 120 h, read-out: % Mortality of Tobacco Budworm. It is filed as in vivo. On the procedure: as §1, §2, §3, §4
Where [3] appears, read: read-out: % Mortality of Colorado Potato Beetle.

As to `CCN/C(=N\Nc1c(Cl)cc(C(F)(F)F)cc1Cl)C(C)(C)C` [I-1, N-ethyl-2,2-dimethylpropionamide-2-(2,6-dichloro-α,α,α-trifluoro-p-tolyl)-hydrazone], the mortality – broadly, the share of the test organisms that died – at 100 ppm amounted to 0% in assay [1] (dose rate 100 ppm, 5 days after treatment) and 0% in assay [2]. For the same compound, the mortality at 300 ppm in assay [1] (dose rate 300 ppm, 5 days after treatment) came to 20.8%; in assay [2] it was 16%.
`O=[N+]([O-])NC1=NCCN1Cc1ccc(Cl)nc1` [imidacloprid, reference compound]: the mortality at 0.06 ppm in assay [1] (setting [3]) worked out at 0%.
Take `CCN/C(=N\Nc1c(Cl)cc(C(F)(F)F)cc1Cl)C1(C)CC1(Cl)Cl` (stereo not drawn) [I-2, N-Ethyl-2,2-dichloro-1-methylcyclopropane-carboxamide-2-(2,6-dichloro-α,α,α-tri-fluoro-p-tolyl)hydrazone]: the mortality at 30 ppm in assay [1] (dose rate 30 ppm, 5 days after treatment) stood at 6.3%. In addition, the mortality at 60 ppm in assay [1] (dose rate 60 ppm, 5 days after treatment) amounted to 39.6%. Besides, in assay [2], the mortality at 60 ppm amounted to 5.4% and the mortality at 100 ppm stood at 12.5%.
Consider `CC1(C)C(C=C(Cl)Cl)C1C(=O)OC(C#N)c1cccc(Oc2ccccc2)c1` (stereo not drawn) [alpha-cypermethrin, reference compound], for which, in assay [1] (setting [3]), the mortality at 0.03 ppm turned out to be 0% and the mortality at 0.06 ppm is 4.2%. In assay [2], the mortality at 0.03 ppm was 0% and the mortality at 0.06 ppm came to 8.9%.
